Assay results taken from ChEMBL document CHEMBL1136134, “Novel coumarin derivatives of heterocyclic compounds as lipid-lowering agents” (2003).
Active and inactive are the calls of the source. The calls are words filed in the database; no cut-off is given here.

Experiments:
Mus musculus [1] = assay: Plasma triglyceride lowering activity in swiss albino mice was determined after 3 mg/kg compound administered for 6 days; assay type: functional
Mus musculus [2] = assay: Plasma triglyceride lowering activity in swiss albino mice was determined after 3 mg/kg compound administered for 6 days; Not effective; assay type: functional, organism-based; parameters: dose 3 mg/kg
Mus musculus [3] = assay: Plasma triglyceride lowering activity in swiss albino mice was determined after 30 mg/kg compound administered for 6 days; assay type: functional

SMILES | Activity (Mus musculus [1]) | Activity (Mus musculus [2]) | other results
CCOc1cc2ccc(OCCn3ncc4ccccc4c3=O)cc2oc1=O | 45% | – | –
CCOc1cc2ccc(OC(C)(C)C(=O)O)cc2oc1=O | 16% | – | –
CCOc1cc2ccc(OCCN(C)c3nc4ccccc4o3)cc2oc1=O | – | inactive | –
CCOc1cc2ccc(OCc3ccccc3F)cc2oc1=O | 25% | – | –
CCOc1cc2ccc(OCCN3c4ccccc4Oc4ccccc43)cc2oc1=O | – | inactive | –
CCOc1cc2ccc(OCCn3c(CC)nc4ccccc4c3=O)cc2oc1=O | – | inactive | –
CCOc1cc2ccc(OCCn3ccc4ccccc43)cc2oc1=O | 27% | – | –
CCOc1cc2ccc(OCCc3nc(-c4ccccc4)oc3C)cc2oc1=O | 31% | – | –
CC(C)OC(=O)C(C)(C)Oc1ccc(C(=O)c2ccc(Cl)cc2)cc1 [FENOFIBRATE] | – | – | Activity (Mus musculus [3]): 36%
O=C(O)c1cc2ccc(OCCn3ncc4ccccc4c3=O)cc2oc1=O | – | inactive | –
CCOc1cc2ccc(OCCn3c(CC)nc(C)cc3=O)cc2oc1=O | 26% | – | –
CCOC(Cc1ccc(OCCN2c3ccccc3Oc3ccccc32)cc1)C(=O)O (configuration not stated) | 47% | – | –
CC(=O)Nc1cc2ccc(OCCc3nc(-c4ccccc4)oc3C)cc2oc1=O | 2% | – | –
CC(=O)Nc1cc2ccc(OCCN(C)c3nc4ccccc4o3)cc2oc1=O | – | inactive | –
CCOC(=O)c1cc2ccc(OCCc3nc(-c4ccccc4)oc3C)cc2oc1=O | 2% | – | –
Cc1oc(-c2ccccc2)nc1CCOc1ccc2cc(C(=O)O)c(=O)oc2c1 | 32% | – | –
CCOc1cc2ccc(OCCn3ncc4cc(C)ccc4c3=O)cc2oc1=O | – | inactive | –
